Measurements taken from patent US9511134B2, “Inducing immune responses to influenza virus using polypeptide and nucleic acid compositions” (priority 2006, dated 2016).
Like-named read-outs stand apart in the source and are kept apart here.

What was measured:
DRB1*1501 = biological target: T1, DRB1*1501 (Homo sapiens, UniProt P01903+P01911); test: biochemical; format: binding; conditions: read-out: IC50 nM to purified HLA DRB1*1501
T1 construct: made in house; host or cells: EBV-transformed homozygous human B cell lines, transfected fibroblasts or single-allele 721.221 transfectants

DRB4*0101 = biological target: T2, DRB4*0101 (Homo sapiens, UniProt P01903+P13762, G164S); test: biochemical; format: binding; conditions: IC50 nM to purified HLA DRB4*0101
T2 construct: made in house; host or cells: EBV-transformed homozygous human B cell lines, transfected fibroblasts or single-allele 721.221 transfectants

DRB1*0301 = biological target: T3, DRB1*0301 (Homo sapiens, UniProt P01903+P01911, A100K/A102G/A103R/A169T/F55Y/I96L/K41T/L162R/M171V/P40S/Q125H/Q178H/Q39Y/R42S/S66N/T106N/T262R/W38E/Y61H); test: biochemical; format: binding
T3 construct: made in house; host or cells: EBV-transformed homozygous human B cell lines, transfected fibroblasts or single-allele 721.221 transfectants
T3 sequence (P01903 26-254, other chains not shown): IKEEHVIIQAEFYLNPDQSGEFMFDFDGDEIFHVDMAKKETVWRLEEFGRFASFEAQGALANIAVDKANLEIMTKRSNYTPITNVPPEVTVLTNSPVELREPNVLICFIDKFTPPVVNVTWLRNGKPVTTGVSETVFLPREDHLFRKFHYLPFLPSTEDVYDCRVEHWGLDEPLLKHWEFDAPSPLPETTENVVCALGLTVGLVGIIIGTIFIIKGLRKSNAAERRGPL

DRB1*1302 = DRB1*1302 (Homo sapiens, UniProt P01903+P01911, A100E/A169T/K41T/L162R/M171V/P40S/Q125H/Q178H/Q39Y/Q99D/R42S/S66N/T262R/V115G/W38E/Y61H); test: biochemical; format: binding; conditions: read-out: IC50 nM to purified HLA DRB1*1302
Sequence of DRB1*1302 (P01903 26-254 limits assumed, other chains not shown): as the sequence (P01903 26-254, other chains not shown) above

DRB1*0101 = biological target: T4, DRB1*0101 (Homo sapiens, UniProt P01903+P01911, A100R/D57E/F55L/F60I/F76Y/I96L/L162R/M171V/P40L/Q125E/R42F/V115G/Y59C); test: biochemical; format: binding; conditions: IC50 nM to purified HLA DRB1*0101
T4 construct: made in house; host or cells: EBV-transformed homozygous human B cell lines, transfected fibroblasts or single-allele 721.221 transfectants

DRB1*0401 = biological target: T5, DRB1*0401 (Homo sapiens, UniProt P01903+P01911, A100K/A169T/F76Y/I96L/K127E/L162R/M171V/N62H/P40V/Q125Y/R42H/S133A/S149N/S66Y/V115G/V209L/W38E); test: biochemical; format: binding; conditions: read-out: IC50 nM to purified HLA DRB1*0401
T5 construct: made in house; host or cells: EBV-transformed homozygous human B cell lines, transfected fibroblasts or single-allele 721.221 transfectants

CD4+ PBMC = format: cell-based, human
DRB1*0404 = DRB1*0404 (Homo sapiens, UniProt P01903+P01911, A100R/A169T/F76Y/I96L/K127E/L162R/M171V/N62H/P40V/Q125Y/R42H/S133A/S149N/S66Y/V209L/W38E); test: biochemical; format: binding; conditions: IC50 nM to purified HLA DRB1*0404
[1] = IFNγ ELISPOT, five day expansion with peptide pool, CD8-depleted

## CC[C@H](C)[C@H](NC(=O)[C@H](CS)NC(=O)[C@@H](NC(=O)[C@H](CCC(N)=O)NC(=O)[C@H](CC(=O)O)NC(=O)[C@H](CO)NC(=O)[C@H](CCCCN)NC(=O)[C@@H](NC(=O)[C@H](CC(C)C)NC(=O)[C@H](CO)NC(=O)[C@@H](N)C(C)C)C(C)C)[C@@H](C)CC)C(=O)NCC(=O)N[C@@H](Cc1ccc(O)cc1)C(=O)N[C@@H](Cc1c[nH]cn1)C(=O)N[C@@H](C)C(=O)O [Flu.HA.11]
DRB1*1501
  IC50: 14500 nM
DRB4*0101
  IC50: 32 nM
DRB1*0301
  IC50: 511 nM

## CC(C)C[C@H](NC(=O)CNC(=O)[C@@H](NC(=O)[C@H](C)NC(=O)[C@H](CC(C)C)NC(=O)[C@@H](NC(=O)[C@H](CC(C)C)NC(=O)[C@H](CCCNC(=N)N)NC(=O)[C@H](CC(N)=O)NC(=O)[C@H](CO)NC(=O)[C@H](CCCCN)NC(=O)[C@@H](NC(=O)[C@H](Cc1ccc(O)cc1)NC(=O)[C@H](CCCCN)NC(=O)[C@@H]1CCCN1C(=O)[C@@H](N)CS)C(C)C)C(C)C)[C@@H](C)O)C(=O)O [Flu.HA.318]
DRB1*1302
  IC50: 48 nM
DRB1*0101
  IC50: 2760 nM
DRB1*1501
  IC50: 230 nM
DRB4*0101
  IC50: 287 nM
DRB1*0301
  IC50: 2920 nM
DRB1*0401
  IC50: 868 nM

## CC[C@H](C)[C@H](NC(=O)CNC(=O)[C@@H](N)CCCCN)C(=O)N[C@@H](CC(C)C)C(=O)NCC(=O)N[C@@H](Cc1ccccc1)C(=O)N[C@H](C(=O)N[C@@H](Cc1ccccc1)C(=O)N[C@H](C(=O)N[C@@H](CC(C)C)C(=O)N[C@H](C(=O)N[C@H](C(=O)N1CCC[C@H]1C(=O)N[C@@H](CO)C(=O)N[C@@H](CCC(=O)O)C(=O)O)C(C)C)[C@@H](C)O)[C@@H](C)O)C(C)C [Flu.M1.60]
CD4+ PBMC
  Human influenza epitope-specific immune response, donor 753: Positive (key: Positive: Donors were considered positive for a peptide if the number of spots was over 3 times background as determined by responses to irrelevant peptides (non influenza))
  Human influenza epitope-specific immune response, donor 6018: Positive (key: Positive: Donors were considered positive for a peptide if the number of spots was over 3 times background as determined by responses to irrelevant peptides (non influenza))
  Human influenza epitope-specific immune response, donor AC02: Positive (key: Positive: Donors were considered positive for a peptide if the number of spots was over 3 times background as determined by responses to irrelevant peptides (non influenza))
  Human influenza epitope-specific immune response, donor AC08: Positive (key: Positive: Donors were considered positive for a peptide if the number of spots was over 3 times background as determined by responses to irrelevant peptides (non influenza))

## CC[C@H](C)[C@H](NC(=O)[C@H](CCC(=O)O)NC(=O)[C@H](CCCNC(=N)N)NC(=O)[C@H](CCCCN)NC(=O)[C@H](CC(C)C)NC(=O)[C@H](CCCCN)NC(=O)[C@H](CCCNC(=N)N)NC(=O)[C@@H](N)Cc1ccc(O)cc1)C(=O)N[C@H](C(=O)N[C@@H](Cc1ccccc1)C(=O)N[C@@H](Cc1c[nH]cn1)C(=O)NCC(=O)N[C@@H](C)C(=O)N[C@@H](CCCCN)C(=O)N[C@@H](CCC(=O)O)C(=O)O)[C@@H](C)O [Flu.M1.103]
CD4+ PBMC; [1]
  Human influenza epitope-specific immune response, donor 716: Positive (Donors were considered positive for a peptide if the number of spots was over 3 times background as determined by responses to irrelevant peptides (non influenza))
  Human influenza epitope-specific immune response, donor AC08: Positive (Donors were considered positive for a peptide if the number of spots was over 3 times background as determined by responses to irrelevant peptides (non influenza))

## CC[C@H](C)[C@H](NC(=O)[C@H](CC(C)C)NC(=O)[C@@H]1CCCN1C(=O)[C@@H](N)CC(N)=O)C(=O)N[C@@H](CCCNC(=N)N)C(=O)N[C@@H](Cc1c[nH]cn1)C(=O)N[C@@H](CCC(=O)O)C(=O)N[C@@H](CC(N)=O)C(=O)N[C@@H](CCCNC(=N)N)C(=O)N[C@@H](CCSC)C(=O)N[C@H](C(=O)N[C@@H](CC(C)C)C(=O)N[C@@H](C)C(=O)N[C@@H](CO)C(=O)N[C@H](C(=O)O)[C@@H](C)O)C(C)C [Flu.M1.173]
CD4+ PBMC; [1]
  Human influenza epitope-specific immune response, donor AC02: Positive (Donors were considered positive for a peptide if the number of spots was over 3 times background as determined by responses to irrelevant peptides (non influenza))

## CSCC[C@H](NC(=O)[C@H](C)NC(=O)[C@H](CCC(N)=O)NC(=O)[C@@H](NC(=O)[C@H](CCSC)NC(=O)[C@H](CCC(N)=O)NC(=O)[C@H](CCCNC(=N)N)NC(=O)[C@H](C)NC(=O)[C@H](CCC(N)=O)NC(=O)[C@H](CO)NC(=O)[C@H](C)NC(=O)[C@@H](NC(=O)[C@H](CCC(=O)O)NC(=O)[C@H](CCSC)NC(=O)[C@H](C)N)C(C)C)C(C)C)C(=O)O [Flu.M1.205]
CD4+ PBMC; [1]
  Human influenza epitope-specific immune response, donor 6018: Positive (Donors were considered positive for a peptide if the number of spots was over 3 times background as determined by responses to irrelevant peptides (non influenza))
  Human influenza epitope-specific immune response, donor AC02: Positive (Donors were considered positive for a peptide if the number of spots was over 3 times background as determined by responses to irrelevant peptides (non influenza))

## CC[C@H](C)[C@H](NC(=O)[C@H](CCCNC(=N)N)NC(=O)[C@@H](NC(=O)[C@H](CO)NC(=O)[C@H](CC(N)=O)NC(=O)[C@H](CC(=O)O)NC(=O)[C@H](CCCCN)NC(=O)[C@H](CO)NC(=O)[C@H](Cc1ccc(O)cc1)NC(=O)[C@@H](NC(=O)[C@H](C)NC(=O)[C@@H](N)Cc1c[nH]c2ccccc12)C(C)C)[C@@H](C)CC)C(=O)NCC(=O)N[C@@H](CO)C(=O)N[C@@H](CCCCN)C(=O)O [Flu.NA.77]
DRB1*1302
  IC50: 36 nM
DRB1*0101
  IC50: 5400 nM
DRB1*1501
  IC50: 642 nM
DRB4*0101
  IC50: 19500 nM
DRB1*0401
  IC50: 1600 nM

## CC[C@H](C)[C@H](NC(=O)[C@H](CCC(N)=O)NC(=O)[C@H](Cc1ccc(O)cc1)NC(=O)[C@H](CCC(=O)O)NC(=O)[C@H](CC(C)C)NC(=O)[C@@H](N)CC(N)=O)C(=O)NCC(=O)N[C@@H](Cc1ccc(O)cc1)C(=O)N[C@H](C(=O)N[C@@H](CS)C(=O)N[C@@H](CO)C(=O)NCC(=O)N[C@H](C(=O)N[C@@H](Cc1ccccc1)C(=O)NCC(=O)O)C(C)C)[C@@H](C)CC [Flu.NA.289]
DRB1*1302
  IC50: 41 nM
DRB1*0101
  IC50: 1130 nM
DRB1*1501
  IC50: 13 nM
DRB4*0101
  IC50: 354 nM
DRB1*0401
  IC50: 975 nM

## CSCC[C@H](NC(=O)[C@H](Cc1c[nH]c2ccccc12)NC(=O)[C@@H](NC(=O)[C@H](CC(C)C)NC(=O)[C@H](CCC(N)=O)NC(=O)[C@H](CO)NC(=O)[C@@H](N)CCCCN)C(C)C)C(=O)N[C@@H](C)C(=O)N[C@@H](CS)C(=O)N[C@@H](Cc1c[nH]cn1)C(=O)N[C@@H](CO)C(=O)N[C@@H](C)C(=O)N[C@@H](C)C(=O)N[C@@H](Cc1ccccc1)C(=O)N[C@@H](CCC(=O)O)C(=O)O [Flu.NF.328]
CD4+ PBMC; [1]
  Human influenza epitope-specific immune response, donor 753: Positive (Donors were considered positive for a peptide if the number of spots was over 3 times background as determined by responses to irrelevant peptides (non influenza))

## CC[C@H](C)[C@H](NC(=O)[C@@H](N)CC(=O)O)C(=O)N[C@@H](CC(C)C)C(=O)N[C@@H](CCSC)C(=O)N[C@@H](CCCNC(=N)N)C(=O)N[C@@H](CCSC)C(=O)N[C@@H](CO)C(=O)N[C@@H](CCCCN)C(=O)N[C@@H](CCSC)C(=O)N[C@@H](CCC(N)=O)C(=O)N[C@@H](CC(C)C)C(=O)NCC(=O)N[C@@H](CO)C(=O)N[C@@H](CO)C(=O)N[C@@H](CO)C(=O)O [Flu.NS2.87]
DRB1*1302
  IC50: 423 nM
DRB1*0101
  IC50: 2140 nM
DRB1*1501
  IC50: 748 nM
DRB4*0101
  IC50: 11 nM
DRB1*0401
  IC50: 717 nM

## CSCC[C@H](NC(=O)[C@H](CCCNC(=N)N)NC(=O)[C@H](CCSC)NC(=O)[C@@H](N)C(C)C)C(=O)NCC(=O)N[C@@H](CC(=O)O)C(=O)N[C@@H](CC(C)C)C(=O)N[C@@H](Cc1c[nH]cn1)C(=O)N[C@@H](CO)C(=O)N[C@@H](CC(C)C)C(=O)N[C@@H](CCC(N)=O)C(=O)N[C@@H](CC(N)=O)C(=O)N[C@@H](CCCNC(=N)N)C(=O)N[C@@H](CC(N)=O)C(=O)NCC(=O)O [Flu.NS2.125]
DRB1*1302
  IC50: 1370 nM
DRB1*0101
  IC50: 249 nM
DRB1*1501
  IC50: 372 nM
DRB4*0101
  IC50: 8820 nM
DRB1*0401
  IC50: 448 nM

## CC[C@H](C)[C@H](NC(=O)CNC(=O)[C@H](CO)NC(=O)[C@@H](NC(=O)CNC(=O)[C@H](Cc1ccccc1)NC(=O)[C@H](CO)NC(=O)[C@@H]1CCCN1C(=O)[C@@H](N)CC(C)C)C(C)C)C(=O)N[C@@H](CC(N)=O)C(=O)N[C@@H](CCC(=O)O)C(=O)N[C@@H](CO)C(=O)N[C@@H](C)C(=O)N[C@@H](CC(=O)O)C(=O)N[C@@H](CCSC)C(=O)O [Flu.PB1.512]
DRB1*0404
  IC50: 39 nM
DRB4*0101
  IC50: 48 nM
DRB1*0401
  IC50: 44 nM
